The nature of this series: Solubility or dispersibility of monomeric dye in vehicle systems.
The mark [1] stands for this setting: 50/50 acetone/water, 600 ppm dye.
Setting [2] is: Methyl ethyl ketone, 600 ppm dye.
Setting [3] is: Water with 1% ammonium hydroxide, 600 ppm dye.
The mark [4] stands for this setting: Water, 0.06% (by weight) or 600 ppm dye.

With `COC(=O)c1cc([O][Al]2[n]3c4c5ccccc5c3/N=C3N=C(/N=c5/c6ccccc6/c([n]52)=N/C2=NC(=N\4)/c4ccccc42)c2ccccc2\3)cc(C(=O)OC)c1` [Dye II, Aluminum phthalocyanine(3,5-dicarbo-methoxyphenoxide)], the “Solubility or Dispersibility” value is “Partially Soluble” under setting [1]; “Partially Soluble” (Acetone, 600 ppm dye); “Soluble” (Ethanol, 600 ppm dye); “Partially Soluble” (Ethyl acetate, 600 ppm dye); “Insoluble” (Methyl acetate, 600 ppm dye); “Partially Soluble” under setting [2]. The “Solubility or Dispersibility” value is, setting by setting: (Propylene glycol, 600 ppm dye) “Soluble”; under setting [3], “Insoluble”; under setting [4], “Insoluble”.
Take `CCCCC(CC)COC(=O)c1ccc(Oc2cccc3c2-c2nc-3nc3[nH]c(nc4nc(nc5[nH]c(n2)c2cccc(Oc6ccc(C(=O)OCC(CC)CCCC)cc6)c52)-c2cccc(Oc5ccc(C(=O)OCC(CC)CCCC)cc5)c2-4)c2cccc(Oc4ccc(C(=O)OCC(CC)CCCC)cc4)c32)cc1` [Dye III, 1(4),8(11),15(18),22(2S)-tetraks((4-(2-ethylhexoxy)carbonyl)phenoxy)phthalocyanine]: the “Solubility or Dispersibility” value is “Insoluble” under setting [1]; “Partially Soluble” (Acetone, 600 ppm dye); “Insoluble” (Ethanol, 600 ppm dye); “Soluble” (Ethyl acetate, 600 ppm dye); “Soluble” (Methyl acetate, 600 ppm dye); “Partially Soluble” under setting [2]. Moreover, the “Solubility or Dispersibility” value (Propylene glycol, 600 ppm dye) was “Insoluble”; the “Solubility or Dispersibility” value under setting [3] is reported as “Insoluble”; the “Solubility or Dispersibility” value under setting [4] is listed as “Insoluble”.
On to `CN1C(=CC=CC=CC=CC2=[N+](C)c3ccc4ccccc4c3C2(C)C)C(C)(C)c2c1ccc1ccccc21.[O-][Cl+3]([O-])([O-])[O-]` [Dye IV, 1,1,3,3,3,3-Hexamethyl-4,4,5,5-dibenzo-2,2-indotricarbocyanine perchlorate], for which the “Solubility or Dispersibility” value by setting is: under setting [1], “Soluble”; (Acetone, 600 ppm dye) “Soluble”; (Ethanol, 600 ppm dye) “Soluble”; (Ethyl acetate, 600 ppm dye) “Soluble”; (Methyl acetate, 600 ppm dye) “Soluble”; under setting [2], “Soluble”. The “Solubility or Dispersibility” value is listed as “Soluble” (Propylene glycol, 600 ppm dye); “Insoluble” under setting [3]; “Insoluble” under setting [4].
As for `CCN1C(=CCC2CCC(C=CC3Sc4ccc(Cl)cc4N3CC)=C2N(c2ccccc2)c2ccccc2)Sc2ccc(Cl)cc21` (centres unmarked) [Dye V, 5,5-Dichloro-11-(diphenylamino)-3,3-diethyl-10,12-ethylenethiatri-carbocyanine perchlorate], the “Solubility or Dispersibility” value is, setting by setting: under setting [1], “Soluble”; (Acetone, 600 ppm dye) “Soluble”; (Ethanol, 600 ppm dye) “Soluble”; (Ethyl acetate, 600 ppm dye) “Insoluble”; (Methyl acetate, 600 ppm dye) “Partially Soluble”; under setting [2], “Soluble”. For the same molecule, the “Solubility or Dispersibility” value is “Insoluble” under setting [3] and “Insoluble” under setting [4].

Source of the values: patent US20020107302A1, “Monomeric dye inkjet printing ink formulations for invisible marking / identification” (priority 2000, published 2002).
